Measurements as given in patent publication US8299085B2, “Quinazoline derivatives” (Novartis AG, priority 2004, dated 2012).

Experiments:
Wistar Kyoto rats [1] = test: Test 1: NMDA-antagonist induced locomotion; type: in vivo, rat; conditions: 10 mg/kg s.c.
Description: Male Wistar Kyoto rats (Iffa Crédo, Lyon, France) weighing between 250 and 310 g are used. In principle 4 treatment groups are formed: 1) the compound (doses 1, 3 or 10 mg/kg) followed by the competitive NMDA receptor antagonist (S)-2-amino-3-(2′-chloro-5-phosphonomethyl-biphenyl-3-yl)-propionic acid, hereinafter SDZ 220-581 (10 mg/kg), 2) solvent-pretreatment followed by SDZ 220-581 (10 mg/kg), 3) solvent followed by solvent, 4) the compound (1, 3, 10 mg/kg) followed by solvent. Rats are randomly allocated to these pretreatment groups (n=10/dose group). Drugs are administered subcutaneous (s.c.), 15 min prior to SDZ 220-581. Immediately after the animals received SDZ 220-581, they are placed into the activity monitor for a period of 60 min. Locomotor activity is analysed over the initial 30 minutes.
Locomotion is recorded with a videotracking system (VideoMot2, TSE Technical and Scientific Equipment GmbH, Bad Hombourg, Germany), using a closed circuit digital videocamera (WV-BP.330/GE, Panasonic, Osaka, Japan). The video-signal from the camera is digitized and used for data analysis. […] The camera is placed such, that four animals (one per arena) can be recorded simultaneously.

AMPA receptor = test: [3H] CNQX binding test (AMPA-receptor binding), brain membranes; conditions: 5 nM [3H]-CNQX, 4° C., 40 min
Description: CNQX binding test (Honoré et al. Biochem. Pharmacol. 1989, 38: 3207-3212). This test is performed as follows:
Brain membranes: The animals are decapitated, the brain removed and homogenized in 10 volumes of ice-cold 10% sucrose with a glass/Teflon homogenizer at positions 5 for 30 sec. The membranes are centrifuged at 1000×g for 10 min, and the supernatant centrifuged at 20,000×g for 15 min. The resulting pellet is resuspended in 10 volumes of cold water with a tissue homogenizer (Brinkman Polytron) at position 5 for 15 sec and the suspension centrifuged at 8000×g for 10 min. The supernatant including the buffy layer is centrifuged at 40,000×g for 20 min, the pellet resuspended in 5 volumes of water and the suspension frozen (20-30 min in dry ice/methanol) and thawed (water-bath at 37° C.) twice. The suspension is centrifuged at 40,000×g for 20 min, the pellet resuspended in 50 mM HEPES/KOH, pH 7.5, and centrifuged at 40,000×g for 10 min. […]
Radioligand binding assay: It is performed using 96-well microtiterplates in a volume of 0.3 ml of 50 mM HEPES/KOH, pH 7.2, 100 μg membrane protein, 5 nM [^3H]-CNQX (NEN) and the compound to be tested. […] Two hundred μl of the scintillation fluid Microscint 20 (Packard) are added and the radioactivity is counted in a Packard Topcount scintillation counter at an efficiency of 40-45%. […]

[2] = biological target: T1, rat GluR3-(flop) AMPA receptor (Rattus norvegicus, UniProt P19492); test: Functional test for AMPA-receptor activity, two electrode voltage clamp in Xenopus laevis oocytes; type: cell-based; conditions: Xenopus oocytes expressing rGluR3-(flop); read-out: IC50-value, antagonist at the rGluR3 AMPA receptor
T1 construct: expressed in transfected cells; host or cells: Xenopus laevis oocytes (cRNA injection)
T1 sequence (P19492 23-888): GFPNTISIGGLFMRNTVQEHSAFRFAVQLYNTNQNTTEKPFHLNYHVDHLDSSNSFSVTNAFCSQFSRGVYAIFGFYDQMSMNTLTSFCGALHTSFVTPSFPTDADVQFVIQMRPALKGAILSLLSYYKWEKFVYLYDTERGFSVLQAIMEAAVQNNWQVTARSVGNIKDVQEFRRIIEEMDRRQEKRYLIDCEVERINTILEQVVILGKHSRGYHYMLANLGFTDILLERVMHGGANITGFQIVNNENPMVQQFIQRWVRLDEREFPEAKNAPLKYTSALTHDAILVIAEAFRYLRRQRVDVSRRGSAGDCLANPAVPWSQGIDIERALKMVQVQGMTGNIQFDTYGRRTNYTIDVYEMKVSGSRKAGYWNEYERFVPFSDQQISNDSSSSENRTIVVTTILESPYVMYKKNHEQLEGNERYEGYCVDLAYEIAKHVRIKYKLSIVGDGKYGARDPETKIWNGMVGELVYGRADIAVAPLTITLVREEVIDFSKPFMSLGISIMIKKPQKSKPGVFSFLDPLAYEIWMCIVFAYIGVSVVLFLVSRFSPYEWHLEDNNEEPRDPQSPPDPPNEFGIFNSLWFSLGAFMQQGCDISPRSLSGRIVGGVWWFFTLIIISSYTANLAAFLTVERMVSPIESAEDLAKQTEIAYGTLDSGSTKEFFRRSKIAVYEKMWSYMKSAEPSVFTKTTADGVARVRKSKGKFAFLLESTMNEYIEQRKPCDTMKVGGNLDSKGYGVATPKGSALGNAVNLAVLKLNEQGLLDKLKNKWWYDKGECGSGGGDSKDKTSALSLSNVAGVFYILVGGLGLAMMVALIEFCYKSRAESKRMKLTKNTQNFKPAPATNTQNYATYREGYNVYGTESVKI
Description: For the determination of functional agonism or antagonism at the AMPA-receptor, experiments can be performed on Xenopus oocytes as previously described in detail (Urwyler et al., Mol. Pharmacol. 2001, 60, 963-971). Briefly, two electrode voltage clamp recordings are performed from Xenopus laevis oocytes expressing GluR3 AMPA receptors. Plasmids for the rat GluR3-(flop) (Hollmann et al., Science 1991, 252, 851-853) are linearized and transcribed into capped cRNA using an in vitro RNA synthesis kit (Ambion, Tex.) with T7 Polymerase. Stock solutions are kept in 70% ethanol. Before use, cRNA is precipitated and resuspended in DEPC-treated water. Oocytes are injected with RNA coding the rat GluR3-(flop) AMPA receptor. For recordings, oocytes are placed in a perfusion chamber with continuous gravity flow of frog Ringer's solution. For recordings from oocytes expressing rGluR3-(flop) receptors frog, Ringer's solution containing Mg^2+ (81 mM NaCl; 2.5 mM KCl; 1 mM CaCl2; 1 mM MgCl2, 2.5 mM NaHCO3, 5 mM HEPES, pH 7.4) is used. Test compounds are washed in with gravity.

Wistar Kyoto rats [3] = test: Test 2: NMDA-channel blocker induced head swaying and circling; type: in vivo, rat; conditions: 10 mg/kg s.c., alone
Description: Adult male Wistar Kyoto rats (340-380 g; Iffa Credo, Lyon, France) are used. The animals are randomized to the following treatment groups (n=10 per group): the compound (dosed 0, 3 or 10 mg/kg) followed by phencyclidine (PCP; an NMDA channel blocker, dosed 0 or 10 mg/kg). Compound (at t=−15 min) and PCP (at t=0 min) are administered s.c. in a volume of 1 ml/kg. Video-recordings of the animals behaviour over the period 0-30 min following PCP are scored by an observer who is unaware about the animals pretreatment. Head-swaying (rocking the head repeatedly by at least 2 cm left and right) and circling (turning around by using the forepaws, whereas the hindpaws remain more or less on the original position) are scored as present (1) or absent (0), every five minutes for the duruation of 1 minute. The scores for individual animals is summed and group scores used for statistical analysis (t-test with Bonferroni correction).

[4] = test system: patients with diabetic neuropathy; test: Clinical study, chronic pain in patients with diabetic neuropathy; type: in vivo, human; conditions: 2400 mg/day, Maintenance and Follow-up Periods, statistically significant
Description: Patients are randomized to receive 2400 mg/day of the compound or placebo in a 1:1 ratio.
The study consists of a Pre-randomization Phase (1 week) and a Double-blind Phase (5 weeks). The double-blind Phase consists of three periods: a one week Titration Period, a three-week Maintenance Period and a one-week Follow-up Period.
During the 1-week Pre-randomization Phase, the eligibility of the patients is evaluated. Patients meeting all inclusion/exclusion criteria are randomized to either the compound or placebo in the Double-blind Phase. During the 1-week Titration Period, study medication is up-titrated from 800 mg/day (given b.i.d.) to 2400 mg/day (given b.i.d.). Patients who complete the 1-week Titration Period then enter the 3-week Maintenance Period. Patients who complete the 3-week Maintenance period or prematurely discontinue double-blind treatment then enter the 1-week Follow-up Period. Study medication is completely withdrawn on entry into the Follow-up Period. During the Double-blind Phase, serial efficacy and safety assessments are obtained. […]
The SF-MPQ total pain score at the end of the Maintenance Period is analyzed using an analysis of covariance model adjusting for the effect of treatment on post-treatment scores by using the baseline SF-MPQ total pain score as a covariate. Average weekly pain severity is analyzed using an analysis of covariance model with repeated measures using the treatment week and the mean pain severity rating during the Pre-randomization Phase as covariates. Usage of rescue medication during the Double-blind Phase is analyzed using the Cochran-Mantel-Haenszel test controlling for center. The mean pain severity rating during the Follow-up Period (rebound pain) is analyzed using an analysis of covariance model adjusting for the effect of treatment on the mean pain severity rating of the Follow-up Period with the mean pain severity rating during the Prerandomization Phase as a covariate.

In the case of `N[C@@H](Cc1cc(CP(=O)(O)O)cc(-c2ccccc2Cl)c1)C(=O)O` [SDZ 220-581, (S)-2-amino-3-(2′-chloro-5-phosphonomethyl-biphenyl-3-yl)-propionic acid], the “distance walked during 30 min” value (Wistar Kyoto rats [1]) is reported as “approximately 30 m”.

Molecule `CN(C)c1cc2c(=O)n(NS(C)(=O)=O)c(=O)[nH]c2cc1[N+](=O)[O-]` [Example 4, N-(6-Dimethylamino-7-nitro-2,4-dioxo-1,4-dihydro-2H-quinazolin-3-yl)-methanesulfonamide] has an IC50 (AMPA receptor) of 290 nM and an IC50 [2] of 2300 nM.

With `c1ccc(C2(N3CCCCC3)CCCCC2)cc1` [PCP, phencyclidine] the head-swaying and circling (Wistar Kyoto rats [3]) was “induces weak head-swaying and circling”.

In the case of `CS(=O)(=O)Nn1c(=O)[nH]c2cc(C(F)(F)F)c(N3CCOCC3)cc2c1=O` [Example 68, N-(6-Morpholin-4-yl-2,4-dioxo-7-trifluoromethyl-1,4-dihydro-2H-quinazolin-3-yl) -methanesulfonamide], the “pain severity ratings relative to placebo” value [4] is reported as “decrease pain severity ratings relative to placebo”.
